The values below come from US20230151434A1, “REAWAKENING OF DORMANT TUMOR CELLS BY MODIFIED LIPIDS DERIVED FROM STRESS ACTIVATED NEUTROPHILS” (The Wistar Institute of Anatomy and Biology, priority 2020, published 2023).

The test system of assay [1] is PMN. The assay is described as follows: S100A8/A9 release by PMN measured by ELISA. Format: cell-based, mouse. The note with it: PMN treated with NE with or without ICI-118,551. How it is done: PMN or PMN-MDSC were isolated from spleen of tumor-free mice or LLC tumor-bearing mice, respectively. A total of 5×10^5 LLC cells were injected into the right flank of mice, and spleens were harvested when tumors reached 200 mm^2. Spleens were mechanically dissociated. Red blood cells were lysed with ACK buffer cells. Splenocytes were stained with mouse biotin-conjugated Ly6G antibody (Miltenyi Biotec) followed by biotin microbeads. Ly6G+ cells were purified by magnetic separation with MACS column for magnetic cell isolation, according to the manufacturer's instructions (Miltenyi Biotec).
One hundred microliters of mouse peripheral blood was collected from facial vein. NE was measured by a mouse NE ELISA Kit (Novus Biologicals). S100A8/A9 was measured by Mouse S100A8/S100A9 Heterodimer DuoSet ELISA (R&D Systems). S100A8/A9 concentrations in human serum samples were determined by using a double-sandwich ELISA system as previously described (64), which is different from commercial ELISA kits. Human NE was measured using an ELISA kit (Abnova).
In general terms: An ELISA detects its analyte on a solid surface through an enzyme-linked reagent.

Assay [2] relates to A549^cisA and OVCAR3^cisA cells. The assay is described as follows: In vitro co-culture of chemotherapy-arrested human tumor cells with human PMN. Format: cell-based. The settings on record: PMN and NE plus ICI-118,551. The procedure:
The KPr cell line (16) was maintained in RPMI 1640 medium (Corning) and 10% FBS (Gibco). Treatment of KPr cells with 250 nM 4-hydroxytamoxifen (4-OHT, Sigma-Aldrich) induced p53 expression. p53-induced cells (KPr^p53) were stained with CellTrace dye for 20 min at 37° C. according to the manufacturer's instructions (Life Technologies) and seeded at 8500 cells/cm^2 in culture in a T175 tissue culture-treated flask (Gibco). After 7 days, cells were detached and sorted based on the CellTrace dye intensity as proliferating (KPr^p53P, with lower CellTrace) and arrested cells (KPr^p53A, with higher-intensity CellTrace; see FIG. 1A for representative image). LL2 cells were seeded at 1000 cells/cm2 and treated for 3 days with 2.5 μM cisplatin (Selleckchem). After that, cells were stained with CellTrace and sorted as described above. OVCAR3 cell senescence was induced by treating 5×10^4 cells/cm2 with 0.5 μM cisplatin for 72 hours. After that time, cells were stained with CellTrace and sorted. A549 senescence was induced by 72-hour treatment with 4 μM cisplatin and cells were sorted after staining with CellTrace. Time points for sorting were chosen as the best to observe separation between arrested and proliferating cells. Cells were sorted on Astrios (Beckman Coulter) or Melody (Becton Dickinson) fluorescence-activated cell sorters.
Arrested tumor cells were plated at 100 cells/cm^2 in a 48-well tissue culture-treated plate (Costar) for coculture experiments. After 24 hours, PMN-MDSC or PMN were added at indicated ratios. Cocultures were maintained for 48 hours in RPMI 1640+10% FBS in the presence of mouse recombinant GM-CSF (10 ng/ml; Rocky Hill) to ensure neutrophil viability. All control conditions were in the presence of media with GM-CSF. All indicated supplements (NE, S100A8/A9, BGJ398, ICI 118-551, IL-2, MPO inhibitor, LPS, lipids, PMA, and thapsigargin 1 μM) were added to culture at the same time as PMN and maintained for 48 hours. After that, media were removed and replaced by fresh media without GM-CSF. After 1 week, GFP^+ cells in wells were counted via an inverted microscope. When lipid extracts were used, lipids were added to dormant cells in culture at 1 to 0.05 or 0.01 nmol as indicated in each experiment.

Another assay concerns PMN and PMN-MDSC. In words: NET detection. Format: cell-based, mouse. The procedure:
PMN were cultured for 8 hours in 24-well flat-bottom plates in RPMI 1640+10% FBS. PMN were then fixed with 4% paraformaldehyde (Electron Microscopy Sciences) followed by staining with SYTOX Green Nucleic Acid Stain (SYTOX) at a final concentration of 250 nM. A Nikon TE300 inverted microscope equipped with a motorized XY stage was used to image NETs by acquiring 25 random locations per well. The z-stacks per location were then combined into an extended depth focused image. The total NET area was calculated by segmenting each image using a defined threshold pixel intensity setting. The spot detection tool in NIS-Elements Advanced Research (Nikon) was used to count the number of cells per field. The sum of the total NET area in the 25 random fields of view was divided by the total number of cells in the 25 fields of view to obtain NET area (in […]) per cell.

Assay [3] relates to PMN. In words: qRT-PCR of Ptges, Ptgs2 and Arg1 in PMN. Format: cell-based, mouse. How it is done: RNA from tumor cells or PMN was extracted from snap-frozen pellets with Quick-RNA Microprep or Quick-RNA Miniprep (Zymo Research) per the manufacturer's instructions. cDNA was prepared with a High-Capacity cDNA Reverse Transcription Kit with RNase Inhibitor (Thermo Fisher Scientific) per the manufacturer's instructions. qRT-PCR was performed in an ABI QuantStudio 5 Rm 422 machine (Applied Biosystems).

For `Cc1ccc(OCC(O)C(C)NC(C)C)c2c1CCC2` (stereo not shown) [ICI-118,551], the “NE-mediated secretion of S100A8/A9 by PMN” value in the assay on PMN [1] is “abrogated the NE-mediated secretion of S100A8/A9 by PMN”. The “NE- and PMN-induced reactivation of dormant human tumor cells, effect of β-blocker” value in assay [2] is recorded as “this effect was abrogated”.

B1: S100A8/A9: recombinant S100A8/A9, heterocomplex of two S100 calcium binding proteins (calprotectin) (protein, UniProt P27005 2-89; P31725 2-113, looked up)
Protein S100-A8: PSELEKALSNLIDVYHNYSNIQGNHHALYKNDFKKMVTTECPQFVQNINIENLFRELDINSDNAINFEEFLAMVIKVGVASHKDSHKE
Protein S100-A9: ANKAPSQMERSITTIIDTFHQYSRKEGHPDTLSKKEFRQMVEAQLATFMKKEKRNEALINDIMEDLDTNQDNQLSFEECMMLMAKLIFACHEKLHENNPRGHGHSHGKGCGK
As to B1, the “NET formation by PMN and PMN-MDSC” value with PMN and PMN-MDSC is “did not cause substantial up-regulation of NETs”. Moreover, the “expression of Arg1, Ptgs2, or Ptges in PMN” value in the assay with PMN [3] is on record as “little or no effect on expression of Arg1, Ptgs2, or Ptges”.
